Assay results from patent US6486381B1, “Genetically engineered mice containing alterations in the genes encoding retinoic acid receptor proteins” (Institut National de la Sante et de la Recherche Medicale, priority 1993, dated 2002).

Experiments:
Type in all cases: in vivo, mouse
[1] = test system: wild type and RARβ2 null embryos; experiment: RA-induced hindbrain and forebrain alterations in wild type and RARβ2 null embryos (in situ hybridization); details: 25 mg/kg at 7.25 dpc
Experimental: For generation of hindbrain malformations timed mating experiments were performed and all-trans RA (Sigma) (25 mg/kg body weight) was administered to the mother by oral gavage at 7.25 dpc. Embryos were collected at 9.0 dpc, yolk sacs were taken for genotyping and embryos were fixed in 4% paraformaldehyde and embedded in paraffin for in situ hybridization on sections. For each embryo, three sets of alternate sections were hybridized to Hoxb-1, Krox-20 and Hoxa-3 probes. These probes have been described previously (Gaunt et al., Development 104 suppl.:71-82 (1988); Wilkinson et al., Nature 337:461-464 (1989); Hunt et al., Nature 353:861-864 (1991)). […] A separate series of embryos was processed for whole-mount in situ hybridization with a digoxigenin-labelled Hoxb-1 riboprobe. Both in situ hybridization procedures were performed as described in Décimo et al. (“In situ Hybridization to Cellular RNA,” in Gene Probes: A Practical Approach, Vol. 2, Hames et al., eds., Oxford University Press, Oxford, England, in press). For induction of limb malformations, all-trans RA was administered at 11.5 dpc (80 mg/kg) and fetuses were collected at 18.5 dpc and analyzed for skeletal malformations. For investigating induction of RARβ2 promoter activity in RARβ2 mutants, 25 mg/kg RA was administered at days 10.5 and 11.5 pc, then embryos were collected and stained for LacZ activity after 4 hours. For whole-mount skeletal analysis, fetuses were collected at 18.5 dpc by ceasarean section and skeletons were prepared as described (Lufkin et al., Nature 359:835-841 (1992)). Histological analysis was as in Lohnes et al. (Cell 73:643-658 (1993)) and lacZ staining as in Mendelsohn et al. (Development 113:723-734 (1991)).
RARβ2+/− intercrosses were set up, and pregnant females were given 25 mg/kg all-trans RA at 7.25 dpc, a dose which is known to produce rhombomeric alterations. […] Hoxb-1 expression was analyzed by whole-mount in situ hybridization.

[2] = test system: wild type, RARγ+/− and RARγ−/− fetuses; experiment: RA-induced skeletal malformations in wild type, RARγ+/− and RARγ−/− offspring
Experimental: For whole mount skeletal analysis, fetuses were collected at day 18.5 p.c. and stored at −20° C. Skeletons were prepared as previously described (Lufkin et al., Nature 359:835-841 (1992)). For histological analysis, fetuses were skinned and then fixed in Bouin's fluid. Paraffin sections, 7 μm thick, were stained with Groat's hematoxylin and Mallory's trichrome. Organs were fixed in 10% formalin, and histological sections, 5 μm thick, were stained with hematoxylin and eosin. RARγ^+/− heterozygote animals were mated overnight and the presence of a vaginal plug at noon the next day considered as day 0.5 p.c. At various times, pregnant females received a single dose of RA dissolved in sunflower seed oil at a final delivery of 100 mg RA per kg animal. […] To determine if any of these malformations could be mediated by RARγ, pregnant dams from heterozygote crosses were treated with RA at day 8.5 or 9.0 p.c., and we examined day 18.5 p.c. fetuses for skeletal malformations. […] Comparison of RA-induced skeletal malformations in wild type, RARγ^+/− and RARγ^−/− offspring. […] Skeletons were prepared, and malformations scored under a dissecting microscope. Where possible, fetuses from the same litter were compared.

[3] = test system: wild type and RARβ2 null fetuses; experiment: RA-induced limb malformations in wild type and RARβ2 null fetuses; details: 80 mg/kg in utero at 11.5 dpc, fetuses at 18.5 dpc
Experimental: For generation of hindbrain malformations timed mating experiments were performed and all-trans RA (Sigma) (25 mg/kg body weight) was administered to the mother by oral gavage at 7.25 dpc. Embryos were collected at 9.0 dpc, yolk sacs were taken for genotyping and embryos were fixed in 4% paraformaldehyde and embedded in paraffin for in situ hybridization on sections. For each embryo, three sets of alternate sections were hybridized to Hoxb-1, Krox-20 and Hoxa-3 probes. These probes have been described previously (Gaunt et al., Development 104 suppl.:71-82 (1988); Wilkinson et al., Nature 337:461-464 (1989); Hunt et al., Nature 353:861-864 (1991)). […] A separate series of embryos was processed for whole-mount in situ hybridization with a digoxigenin-labelled Hoxb-1 riboprobe. Both in situ hybridization procedures were performed as described in Décimo et al. (“In situ Hybridization to Cellular RNA,” in Gene Probes: A Practical Approach, Vol. 2, Hames et al., eds., Oxford University Press, Oxford, England, in press). For induction of limb malformations, all-trans RA was administered at 11.5 dpc (80 mg/kg) and fetuses were collected at 18.5 dpc and analyzed for skeletal malformations. For investigating induction of RARβ2 promoter activity in RARβ2 mutants, 25 mg/kg RA was administered at days 10.5 and 11.5 pc, then embryos were collected and stained for LacZ activity after 4 hours. […]

[4] = test system: RARα1 null homozygotes; experiment: RA-induced malformations in RARα1 null homozygotes; details: RA at days 8.5-9.0 p.c.
[5] = test system: RARγ2−/− animals; experiment: RA-induced skeletal malformations in RARγ2−/− animals; details: RARγ2−/− animals versus control littermates, identical conditions
[6] = RA 100 mg/kg single dose to dam at day 8.5 p.c., RARγ +/+ fetuses, day 18.5 p.c.
[7] = RA 100 mg/kg single dose to dam at day 8.5 p.c., RARγ +/− fetuses, day 18.5 p.c.
[8] = RA 100 mg/kg single dose to dam at day 8.5 p.c., RARγ −/− fetuses, day 18.5 p.c.
[9] = RA 100 mg/kg single dose to dam at day 9.0 p.c., +/−, fetuses day 18.5 p.c.
[10] = RA 100 mg/kg single dose to dam at day 9.0 p.c., RARγ +/− fetuses, day 18.5 p.c.
[11] = RA 100 mg/kg single dose to dam at day 9.0 p.c., RARγ −/− fetuses, day 18.5 p.c.

CC1=C(/C=C/C(C)=C/C=C/C(C)=C/C(=O)O)C(C)(C)CCC1 [RA, retinoic acid]
Hoxa-3 expression pattern ([1]; embryos collected at 9.0 dpc): No significant alteration | forebrain truncation ([1]; observed at 9.0-9.5 dpc, wild-type and RARβ2 null embryos): Severe truncations of the forebrain | Krox-20 transcripts (in situ hybridization) ([1]; RA-treated embryos): not detected in the putative R3 | Hoxb-1 expression (in situ hybridization) ([1]; wild type and RARβ2 null mutants): rostral expansion of the Hoxb-1 transcript domain | Caudal truncations [2, 6]: 11 (100%) fetuses (%) | Craniofacial malformations [2, 6]: 11 (100%) fetuses (%) | Degenerate ribs [2, 6]: 10 (91%) fetuses (%) | Homeotic transformations: 8 vertebrosternal ribs (T8 → T7) [2, 6]: 7 (64%) fetuses (%) | Homeotic transformations: 14 or 15 ribs (L → T) [2, 6]: 6 (54%) fetuses (%) | Caudal truncations [2, 7]: 13 (81%) fetuses (%) | Craniofacial malformations [2, 7]: 16 (100%) fetuses (%) | Degenerate ribs [2, 7]: 6 (38%) fetuses (%) | Homeotic transformations: 8 vertebrosternal ribs (T8 → T7) [2, 7]: 8 (50%) fetuses (%) | Homeotic transformations: 14 or 15 ribs (L → T) [2, 7]: 14 (87%) fetuses (%) | Malformed lumbar/sacral vertebrae [2, 7]: 3 (19%) fetuses (%) | Caudal truncations [2, 8]: 0 (0%) fetuses (%) | Craniofacial malformations [2, 8]: 10 (100%) fetuses (%) | Degenerate ribs [2, 8]: 0 (0%) fetuses (%) | Homeotic transformations: 8 vertebrosternal ribs (T8 → T7) [2, 8]: 6 (50%) fetuses (%) | Homeotic transformations: 14 or 15 ribs (L → T) [2, 8]: 7 (70%) fetuses (%) | Homeotic transformations: Number of lumbar vertebrae: 5 [2, 8]: 1 (10%) fetuses (%) | Homeotic transformations: Number of lumbar vertebrae: 6 [2, 8]: 9 (90%) fetuses (%) | Homeotic transformations: Number of lumbar vertebrae: 7 [2, 8]: 0 (0%) fetuses (%) | Malformed lumbar/sacral vertebrae [2, 8]: 0 (0%) fetuses (%) | Caudal truncations [2, 9]: 13 (100%) fetuses (%) | Craniofacial malformations [2, 9]: 13 (100%) fetuses (%) | Degenerate ribs [2, 9]: 0 (0%) fetuses (%) | Homeotic transformations: 8 vertebrosternal ribs (T8 → T7) [2, 9]: 7 (54%) fetuses (%) | Homeotic transformations: 14 or 15 ribs (L → T) [2, 9]: 7 (54%) fetuses (%) | Caudal truncations [2, 10]: 14 (58%) fetuses (%) | Craniofacial malformations [2, 10]: 24 (100%) fetuses (%) | Degenerate ribs [2, 10]: 0 (0%) fetuses (%) | Homeotic transformations: 8 vertebrosternal ribs (T8 → T7) [2, 10]: 9 (38%) fetuses (%) | Homeotic transformations: 14 or 15 ribs (L → T) [2, 10]: 8 (33%) fetuses (%) | Malformed lumbar/sacral vertebrae [2, 10]: 10 (42%) fetuses (%) | Caudal truncations [2, 11]: 0 (0%) fetuses (%) | Craniofacial malformations [2, 11]: 18 (100%) fetuses (%) | Degenerate ribs [2, 11]: 0 (0%) fetuses (%) | Homeotic transformations: 8 vertebrosternal ribs (T8 → T7) [2, 11]: 11 (61%) fetuses (%) | Homeotic transformations: 14 or 15 ribs (L → T) [2, 11]: 11 (61%) fetuses (%) | Homeotic transformations: Number of lumbar vertebrae: 5 [2, 11]: 1 (7%) fetuses (%) | Homeotic transformations: Number of lumbar vertebrae: 6 [2, 11]: 15 (83%) fetuses (%) | Homeotic transformations: Number of lumbar vertebrae: 7 [2, 11]: 3 (16%) fetuses (%) | Malformed lumbar/sacral vertebrae [2, 11]: 0 (0%) fetuses (%) | lumbar to thoracic, sacral to lumbar and lumbar to sacral vertebral transformations ([2]; RA-treated RARγ null homozygotes): also occurred | RA-induced truncations ([2]; RARγ heterozygotes, RA at day 8.5 p.c.): partially resistant | lumbo-sacral vertebral malformations, including fusion of the neural arches and disorganized vertebral centres ([2]; RARγ+/− animals, RA-treated): always exhibited lumbo-sacral vertebral malformations | spina bifida, truncation of the axial skeleton in the post-thoracic region, degenerate or fused ribs, disorganized vertebral centres or malformed neural arches ([2]; RARγ−/− embryos exposed to RA at day 8.5 p.c.): none | truncations and associated defects ([2]; RARγ−/− littermates, RA at day 9.0 p.c.): never observed | truncations and associated defects ([2]; WT embryos, RA at day 9.0 p.c. compared to day 8.5 p.c.): progressively more posterior truncations and associated defects | spina bifida, truncation of the axial skeleton in the post-thoracic region, degenerate or fused ribs, disorganized vertebral centres or malformed neural arches ([2]; WT fetuses exposed to RA at day 8.5 p.c.): All WT fetuses exhibited these malformations | nature or extent of the limb malformations, wild type versus RARβ2 null fetuses [3]: no apparent differences | limb malformations (truncated long bones, missing digits) ([3]; wild type and RARβ2 null, compared to untreated): severely malformed limbs | resistance to RA-induced malformations (lumbosacral truncations) [4]: not observed | type and frequency of RA-induced malformations [5]: same type and frequency of RA-induced malformations as control littermates
